Experimental data as given in patent US8163479B2, “Specific substrates for O6-alkylguanine-DNA alkyltransferase” (Ecole Polytechnique Federale de Lausanne, priority 2004, dated 2012).
Substitutions are numbered along the chain they refer to. Residues, ends and D or L forms follow the SMILES beside them. *: point of attachment. X1 = CN(CCCC(=O)NCc1ccc(COc2nc(N)nc3[nH]c(CCCNC(=O)CN4C(=O)C[C@H](*)C4=O)nc23)cc1)C(=O)c1ccccc1-c1c2ccc(=N)c(S(=O)(=O)O)c-2oc2c(S(=O)(=O)O)c(N)ccc12

How the values were obtained:
AGT21 (AGT mutant) = target: T1, AGT21 (AGT mutant) (Homo sapiens, UniProt P16455, A127T/C150N/C62A/K125A/N157G/Q115S/Q116H/R128A/R135S/S151I/S152N/S159E); experiment: Fluorescence-appearance assay and reactivity comparisons; type: biochemical; conditions: for reaction rate relative to the compound unsubstituted at C^8/N^9 / reaction rate relative to the corresponding N^9-substituted compound: AGT21; for reaction rate relative to the compound unsubstituted at C^8/N^9: comparator BG-TMR, BG-Atto488 or BG-FL; for reaction rate relative to the corresponding N^9-substituted compound: comparator compound 35, 27 or 29
T1 construct: and truncation at 182 is prepared according to the same method; GST (N); made in house; host or cells: E. coli BL21
T1 sequence (P16455 1-182 C62A/Q115S/Q116H/K125A/A127T/R128A/R135S/C150N/S151I/S152N/N157G/S159E): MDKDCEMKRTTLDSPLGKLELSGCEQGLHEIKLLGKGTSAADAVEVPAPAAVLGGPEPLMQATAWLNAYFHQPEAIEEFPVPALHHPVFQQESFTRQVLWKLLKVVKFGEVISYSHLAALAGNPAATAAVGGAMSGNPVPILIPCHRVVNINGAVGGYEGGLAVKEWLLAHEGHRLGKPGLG
Description: A third AGT mutant (“AGT21”) related to AGTM and containing the mutations Cys62Ala, Gln115Ser, Gln116His, Lys125Ala, Ala127Thr, Arg128Ala, Arg135Ser, Cys150Asn, Ser15111e, Ser152Asn, Asn157Gly, Ser159G1u, and truncation at 182 is prepared according to the same method.
(§1) In a further assay, purified protein of AGT mutants AGTM and AGT21 (Example 47) at a protein concentration of 10 μM are incubated with 100 nM N-[4-(2-Amino-9-(3-QSY9-aminopropyl)-purin-6-yloxymethyl)-benzyl]-tetramethylrhodamine-5(6)-carboxamide (35, N^9-QSY9-BG-TMR, Example 19) in a buffer containing 100 mM NaCl, 50 mM Tris, pH 8.0, 0.1% Tween, 1 mM DTT, at room temperature. The fluorescence intensity (531 nm excitation/595 nm emission) is followed using a Victor2 microplate reader (Perkin Elmer).
(§2) Further reactivity comparisons gave the following results: […]

AGTM (AGT mutant) = target: T2, AGTM (AGT mutant) (Homo sapiens, UniProt P16455, A127T/C150N/C62A/G131K/G132T/K125A/M134L/N157G/Q115S/Q116H/R128A/R135S/S151I/S152N/S159E); experiment: as above; type: biochemical; conditions: for reaction rate relative to the compound unsubstituted at C^8/N^9 / reaction rate relative to the corresponding N^9-substituted compound: AGTM; for reaction rate relative to the compound unsubstituted at C^8/N^9: comparator BG-TMR, BG-Atto488 or BG-FL; for reaction rate relative to the corresponding N^9-substituted compound: comparator compound 35, 27 or 29
T2 construct: a truncation after codon 182 into the mutant AGT gene; GST (N); made in house; host or cells: E. coli BL21
T2 sequence (P16455 1-182 C62A/Q115S/Q116H/K125A/A127T/R128A/G131K/G132T/M134L/R135S/C150N/S151I/S152N/N157G/S159E): T1 sequence (P16455 1-182 C62A/Q115S/Q116H/K125A/A127T/R128A/R135S/C150N/S151I/S152N/N157G/S159E) with G131K, G132T, M134L
Source text: A second AGT mutant (“AGTM”) containing the mutations Cys62Ala, Gln115Ser, Gln116His, Lys125Ala, Ala127Thr, Arg128Ala, Gly131Lys, Gly132Thr, Met134Leu, Arg135Ser, Cys150Asn, Ser15111e, Ser152Asn, Asn157Gly, Ser159G1u, and truncation at 182 is derived from the mentioned above AGT mutant by subsequent introduction of further mutations and a truncation after codon 182 into the mutant AGT gene. Subsequent PCR amplifications gives rise to the further mutated gene that is subcloned into pGEX2T as described for the first mutant. The GST-fusion protein is expressed and purified as well.
as §1, with “The fluorescence intensity (531 nm excitation/595 nm emission) is followed using a Victor2 microplate reader (Perkin Elmer).” left out
as §2

[1] = target: T3, AGT26-CaaX fusion protein in CHO cells deficient in endogenous wildtype AGT (Homo sapiens, UniProt P16455, A127T/C150S/C62A/G131K/G132T/K125A/M134L/N157G/R128A/R135S/S159E); type: cell-based
T3 construct: and truncation at 182 is also prepared according to the same method; expressed in transfected cells
T3 sequence (P16455 1-182 C62A/K125A/A127T/R128A/G131K/G132T/M134L/R135S/C150S/N157G/S159E): T1 sequence (P16455 1-182 C62A/Q115S/Q116H/K125A/A127T/R128A/R135S/C150N/S151I/S152N/N157G/S159E) with S115Q, H116Q, G131K, G132T, M134L, N150S, I151S, N152S
Description: A fourth AGT mutant (“AGT26”) related to AGTM and containing the mutations Cys62Ala, Lys125Ala, Ala127Thr, Arg128Ala, Gly131Lys, Gly132Thr, Met134Leu, Arg135Ser, Cys150Ser, Asn157Gly, Ser159G1u, and truncation at 182 is also prepared according to the same method.
A vector for a fusion of AGT26 and the CaaX-farnesylation signal is transfected into CHO cells deficient in endogenous wildtype AGT. Stable transfectants are selected under geneticine treatment. For that purpose the gene of AGT26 is cloned into pCMV-Script (Stratagene) followed on its C-terminus by the CaaX-box sequence encoded in the pECP-F (Clontech). The final protein sequence (position 690-1271) yields a single polypeptide with 194 amino acids. […] All imaging is done with an inverted Zeiss fluorescence microscope Axiovert 40 CFL with filter sets for tetramethylrhodamine and for fluorescein.

wild type hAGT = target: T4, wild type hAGT (Homo sapiens, UniProt P16455); conditions: known values; cited from earlier work
T4 sequence (P16455 1-207): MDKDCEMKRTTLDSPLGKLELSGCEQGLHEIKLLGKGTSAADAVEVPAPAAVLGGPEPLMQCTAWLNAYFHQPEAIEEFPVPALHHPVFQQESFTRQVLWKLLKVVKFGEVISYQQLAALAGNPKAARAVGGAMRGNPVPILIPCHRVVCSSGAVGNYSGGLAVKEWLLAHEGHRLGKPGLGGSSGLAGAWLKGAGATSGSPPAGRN

[2] = 10 μM protein, 100 nM substrate, over 1 hour at 25° C.
[3] = fluorescence 490 nm excitation / 535 nm emission

Compound	reaction rate relative to the compound unsubstituted at C^8/N^9 (AGT21 (AGT mutant))	reaction rate relative to the corresponding N^9-substituted compound (AGT21 (AGT mutant))	reaction rate relative to the compound unsubstituted at C^8/N^9 (AGTM (AGT mutant))	reaction rate relative to the corresponding N^9-substituted compound (AGTM (AGT mutant))	further results
N-[4-(2-Amino-9-(3-QSY9-aminopropyl)-purin-6-yloxymethyl)-benzyl]-tetramethylrhodamine-5(6)-carboxamide [compound 35]					increase of tetramethylrhodamine fluorescence (AGT21 (AGT mutant); [2]): about 80%; increase of tetramethylrhodamine fluorescence (AGTM (AGT mutant); [2]): less than five percent
O^6-tetramethylrhodamine-benzylguanine [BG-TMR, reference compound]					labeling of cells (fluorescence microscopy) ([1]; 5 μM, 30 min, CHO cells with AGT26-CaaX): clear signal at the cell membrane
CN(CCCC(=O)NCc1ccc(COc2nc(N)nc3[nH]c(CCCNC(=O)CN4C(=O)C[C@H](SC[C@H](NC(=O)[C@H](CCCNC(=N)N)NC(=O)[C@H](CCCNC(=N)N)NC(=O)[C@H](CCCNC(=N)N)NC(=O)[C@H](CCCNC(=N)N)NC(=O)[C@H](CCCNC(=N)N)NC(=O)[C@H](CCCNC(=N)N)NC(=O)[C@H](CCCNC(=N)N)NC(=O)[C@H](CCCNC(=N)N)NC(=O)[C@H](CCCNC(=N)N)NC(=O)[C@@H](N)Cc5ccc(O)cc5)C(=O)O)C4=O)nc23)cc1)C(=O)c1ccccc1-c1c2ccc(=N)c(S(=O)(=O)O)c-2oc2c(S(=O)(=O)O)c(N)ccc12 [compound 60, Conjugate O^6-ATT0488-C^8-TyrArg9Cys] (H-YRRRRRRRRRC(X1)-OH; N-terminus and C-terminus assumed)					cell membrane permeability [1]: increased permeability
CN(CCCC(=O)NCc1ccc(COc2nc(N)nc3[nH]c(CCCNC(=O)c4ccc(/N=N/c5ccc(N(C)C)cc5)cc4)nc23)cc1)C(=O)c1ccccc1-c1c2ccc(=N)c(S(=O)(=O)O)c-2oc2c(S(=O)(=O)O)c(N)ccc12 [compound 45, N-[4-(2-Amino-8-(3-(4-[4-dimethylamino-phenyl]-azo-benzoyl)-aminopropyl)-9H-purin-6-yloxymethyl)-benzyl]-ATTO488-amide]	two times faster	at least four times faster	three times faster	at least fifteen times faster	increase in reactivity compared to BG-Atto488 (AGT21 (AGT mutant); [3]): twofold; increased reactivity compared to BG-Atto488 (AGTM (AGT mutant); [3]): 3 fold
N-[4-(2-Amino-8-(3-(4-[4-dimethylamino-phenyl]-azo-benzoyl)-amino-propyl)-9H-purin-6-yloxymethyl)-benzyl]-fluoresceine-5(6)-carboxamide [compound 44]	two times faster	at least four times faster	two times faster	at least ten times faster	
N-[4-(2-Amino-8-(3-QSY9-aminopropyl)-9H-purin-6-yloxymethyl)-benzyl]-tetramethylrhodamine-5(6)-carboxamide [compound 48]	two times faster	at least four times faster	two times faster	at least ten times faster	
Nc1nc(OCc2ccccc2)c2ncn(C3C[C@H](O)[C@@H](CO)O3)c2n1 (stereo partly shown) [N^9-desoxyribosyl-O^6-benzylguanine]					rate constant of the reaction with wild type hAGT (wild type hAGT): 340 s^−1M^−1
